≈ marks a conversion by molar mass, not a printed value. Where two headings read alike, the source gives them in different places.
Legend:
H. pylori [1] = assay: MIC by broth microdilution assay against H. pylori; assay type: cell-based; conditions: Helicobacter pylori, 72 h
Protocol: (§1) The MIC and MBC of the compounds can be measured with the following procedure: In vitro antibacterial activity was tested using the broth microdilution assay. Experiments were carried out in triplicate using Müller-Hinton broth supplemented with 10% FBS in 96-well plates at a total assay volume of 100 μL. Antimicrobials were tested against H. pylori. Two-fold serial dilutions were prepared between the concentration range 0.01-64 μg/mL. An initial bacterial inoculum was adjusted to OD600=0.06 and incubated with test compounds at 37° C. for 3 days in humidified incubators under the 5% CO2 atmosphere. OD600 was measured and the lowest concentration of compound that inhibited bacterial growth was reported as the MIC. See Gwisai T, et al. Repurposing niclosamide as a versatile antimicrobial surface coating against device-associated, hospital-acquired bacterial infections. Biomed Mater. 2017; 12(4):045010. The pH was adjusted to acidic condition with 1 N HCL. The minimal bactericidal concentration (MBC) was determined by plating 5 μL of broth culture from the MIC assay onto Müller-Hinton agar (BD Biosciences) supplemented with 10% FBS. After 72 h, the lowest concentration at which colonies were not observed was reported as the MBC.

H. pylori [2] = assay: MBC by plating broth culture from the MIC assay onto Müller-Hinton agar; assay type: cell-based; conditions: Helicobacter pylori
Protocol: as §1

H. pylori strain 49503 = assay: MIC against H. pylori strain 49503; assay type: cell-based, Helicobacter pylori
Protocol: as §1

H. pylori strain 43504 = assay: MIC against H. pylori strain 43504; assay type: cell-based, Helicobacter pylori
Protocol: as §1

H. pylori strain 51932 = assay: MIC against H. pylori strain 51932; assay type: cell-based, Helicobacter pylori
Protocol: as §1

H. pylori [3] = assay: MIC in acidic pH environments; assay type: cell-based; conditions: Helicobacter pylori
Protocol: as §1
MIC data in acidic pH is shown in Table 6 for selected compounds identified by compound number.

H. pylori [4] = assay: Antibacterial synergy by checkerboard assay (FICI) with antibiotics and proton pump inhibitors; assay type: cell-based, Helicobacter pylori; conditions: tested with amoxicillin, clarithromycin, omeprazole and pantoprazole; synergistic effect = FICI ≤0.5
Protocol: Compounds 1, 13, 15, and 16 were tested with Amoxxicillin, Clarithromycin, Omeprazole, and Pantoprazole.
Antibacterial synergy was tested using the checkerboard assay. The compound of interest was combined with antibiotics and proton pump inhibitors (PPIs). In this series of experiments cultures of H. pylori were adjusted to OD600=0.06 and added to compound pairs that had been serially diluted in the same 96-well plates, vertically for one compound and horizontally for the other. Assays were carried out in triplicate as described in the antibacterial susceptibility assay sub-section. The combinatorial inhibitory concentration was indicated by the FICI. FICI=MICA combination/MICA alone+MICB combination/MICB alone.

[5] = H. pylori, Müller-Hinton broth with 10% FBS, 37° C., 3 days, read-out: MIC
[6] = H. pylori, lowest concentration without colonies after 72 h, read-out: MBC

SMILES | MIC (H. pylori [1]; [5]) [µg/mL] | MBC (H. pylori [2]; [6]) [µg/mL] | MIC (H. pylori [1]) [µg/mL] | MBC (H. pylori [2]; 72 h) [µg/mL] | other results
CC1(C)S[C@@H]2[C@H](NC(=O)[C@H](N)c3ccc(O)cc3)C(=O)N2[C@H]1C(=O)O [Amoxicillin, reference compound] | 0.01 (≈ 0.0274 µM) | 0.025 (≈ 0.0684 µM) | – | – | –
CCOP(=O)(N/N=C/c1ccc([N+](=O)[O-])o1)Nc1ccccc1 (stereo not shown) [Compound 1] | – | – | 1 to 2 (≈ 2.96 to 5.91 µM) | 2 (≈ 5.91 µM) | MIC (H. pylori strain 49503): 1.0-2.0 μ/mL; MIC (H. pylori strain 43504): 2.0 µg/mL (≈ 5.91 µM); MIC (H. pylori strain 51932): 1.0 µg/mL (≈ 2.96 µM); MIC (H. pylori [3]; pH 5.5): 0.25 µg/mL (≈ 0.739 µM); MIC (H. pylori [3]; pH 6): 1 µg/mL (≈ 2.96 µM); MIC (H. pylori [3]; pH 6.5): 1 µg/mL (≈ 2.96 µM); MIC (H. pylori [3]; pH 7): 1 µg/mL (≈ 2.96 µM); Combination effect with secondary agent (FIG. 1) (H. pylori [4]): synergistic effect
CCOP(=O)(N/N=C/c1ccc([N+](=O)[O-])o1)Nc1ccc(C)cc1 (stereo not shown) [Compound 2] | – | – | 2 (≈ 5.68 µM) | 2 (≈ 5.68 µM) | –
CCOP(=O)(N/N=C/c1ccc([N+](=O)[O-])o1)Nc1ccc(OC)cc1 (stereo not shown) [Compound 3] | – | – | 2 (≈ 5.43 µM) | 2 (≈ 5.43 µM) | –
CCOP(=O)(N/N=C/c1ccc([N+](=O)[O-])o1)Nc1ccc(Cl)cc1 (stereo not shown) [Compound 4] | – | – | 1 (≈ 2.68 µM) | 1 (≈ 2.68 µM) | –
CCOP(=O)(N/N=C/c1ccc([N+](=O)[O-])o1)Nc1ccc(Cl)c(Cl)c1 (stereo not shown) [Compound 5] | – | – | 1 (≈ 2.46 µM) | 1 (≈ 2.46 µM) | –
CCOP(=O)(N/N=C/c1ccc([N+](=O)[O-])o1)Nc1ccc2c(c1)OCO2 (stereo not shown) [Compound 6] | – | – | 2 (≈ 5.23 µM) | 2 (≈ 5.23 µM) | –
CCOP(=O)(NCc1ccccc1)N/N=C/c1ccc([N+](=O)[O-])o1 (stereo not shown) [Compound 7] | – | – | 2 (≈ 5.68 µM) | 2 (≈ 5.68 µM) | –
Cc1ccc(NP(=O)(N/N=C/c2ccc([N+](=O)[O-])o2)N2CCOCC2)cc1 (stereo not shown) [Compound 8] | 4 (≈ 10.2 µM) | 4 (≈ 10.2 µM) | – | – | –
Br.Nc1nc2c(s1)CCc1oc([N+](=O)[O-])cc1-2 [Compound 9] | 4 | 4 | – | – | –
Br.CNc1nc2c(s1)CCc1oc([N+](=O)[O-])cc1-2 [Compound 10] | 4 | 4 | – | – | –
O=C(/C=C/c1ccccc1)N/N=C/c1ccc([N+](=O)[O-])o1 [Compound 11] | 1 (≈ 3.51 µM) | 1 (≈ 3.51 µM) | – | – | –
O=C1CCCc2oc([N+](=O)[O-])cc21 [Compound 12] | 1 (≈ 5.52 µM) | 1 (≈ 5.52 µM) | – | – | –
NC(=O)N/N=C1/CCCc2oc([N+](=O)[O-])cc21 [Compound 13] | 0.25 (≈ 1.05 µM) | 0.25 (≈ 1.05 µM) | – | – | MIC (H. pylori strain 43504): 0.5 µg/mL (≈ 2.1 µM); MIC (H. pylori [3]; pH 5.5, read-out: MIC): 0.06 µg/mL (≈ 0.252 µM); MIC (H. pylori [3]; pH 6.5, read-out: MIC): 0.25 µg/mL (≈ 1.05 µM); MIC (H. pylori [3]; pH 6.0, read-out: MIC): 0.25 µg/mL (≈ 1.05 µM); MIC (H. pylori [3]; pH 7.0, read-out: MIC): 0.25 µg/mL (≈ 1.05 µM); Combination effect with secondary agent (FIG. 1) (H. pylori [4]): synergistic effect
O=[N+]([O-])c1ccc(/C=N/N=C/c2ccc([N+](=O)[O-])o2)o1 [Compound 14] | – | – | 4 (≈ 14.4 µM) | 4 (≈ 14.4 µM) | –
CCOP(=O)(N/N=C1\CCCc2oc([N+](=O)[O-])cc21)Nc1ccccc1 (stereo not shown) [Compound 15] | – | – | 0.25 (≈ 0.661 µM) | 0.25 (≈ 0.661 µM) | MIC (H. pylori strain 49503): 0.25 µg/mL (≈ 0.661 µM); MIC (H. pylori strain 43504): 1.0 µg/mL (≈ 2.64 µM); MIC (H. pylori strain 51932): 0.25 µg/mL (≈ 0.661 µM); MIC (H. pylori [3]; pH 5.5): 0.06 µg/mL (≈ 0.159 µM); MIC (H. pylori [3]; pH 6): 0.25 µg/mL (≈ 0.661 µM); MIC (H. pylori [3]; pH 6.5): 0.25 µg/mL (≈ 0.661 µM); MIC (H. pylori [3]; pH 7): 0.25 µg/mL (≈ 0.661 µM); Combination effect with secondary agent (FIG. 1) (H. pylori [4]): synergistic effect
O=C(/C=C/c1ccccc1)N/N=C1\CCCc2oc([N+](=O)[O-])cc21 [Compound 16] | 0.25 (≈ 0.768 µM) | 0.25 (≈ 0.768 µM) | – | – | MIC (H. pylori strain 43504): 1.0 µg/mL (≈ 3.07 µM); MIC (H. pylori [3]; pH 5.5, read-out: MIC): 0.06 µg/mL (≈ 0.184 µM); MIC (H. pylori [3]; pH 6.5, read-out: MIC): 0.25 µg/mL (≈ 0.768 µM); MIC (H. pylori [3]; pH 6.0, read-out: MIC): 0.25 µg/mL (≈ 0.768 µM); MIC (H. pylori [3]; pH 7.0, read-out: MIC): 0.25 µg/mL (≈ 0.768 µM); Combination effect with secondary agent (FIG. 1) (H. pylori [4]): synergistic effect
O=C(Nc1ccc([N+](=O)[O-])cc1Cl)c1cc(Cl)ccc1O [Niclosamide, reference compound] | 0.25 (≈ 0.764 µM) | 0.5 (≈ 1.53 µM) | – | – | –

Reference: patent publication US12369579B2, “Antimicrobial agents and compositions and uses thereof” (KODA Therapeutics, LLC, priority 2019, dated 2025)
